According to article PMC6273488, “Synthesis and Biological Evaluation of Benzochromenopyrimidinones as Cholinesterase Inhibitors and Potent Antioxidant, Non-Hepatotoxic Agents for Alzheimer’s Disease” (Molecules, 2016):
Read-outs that look alike come from different tables or passages of the source.

Assays:
[1] = molecular target: T1, Electrophorus electricus AChE (EeAChE) (Electrophorus electricus, UniProt O42275); experiment: Inhibition of EeAChE (Ellman's assay); assay type: biochemical; conditions: mean ± SEM, at least three independent experiments
T1 construct: purified AChE from Electrophorus electricus (Type V-S, Sigma-Aldrich); purchased Sigma-Aldrich Type V-S
Method: (§1) For the preliminary screening of the inhibitory potencies, Electrophorus electricus AChE (EeAChE) and horse serum BuChE (eqBuChE) were used following the Ellman’s assay.
(§2) Assessment of the inhibitory power of BCPOs was performed following the spectrophotometric method of Ellman using purified AChE from Electrophorus electricus (Type V-S, Sigma-Aldrich) or BuChE from horse serum (lyophilized powder, Sigma-Aldrich). Enzymes were first dissolved in 0.1 M phosphate buffer (pH 8.0) and then aliquoted in small vials for easy handling. Compounds stock solutions in DMSO (10 mM) were diluted when necessary with DMSO to prepare appropriate dilutions of each compound. The assay was performed in a final volume of 3 mL of a 0.1 M phosphate-buffered solution at pH 8.0, containing 5,5′-dithiobis-2-nitrobenzoic acid (DTNB, 2625 µL, 0.35 mM, final concentration), EeAChE (29 µL, 0.035 U/mL final concentration) or eqBuChE (60 µL, 0.05 U/mL final concentration) tested compound (3 µL, different concentrations) and 1% (w/v) Bovine Albumin Serum phosphate-buffered (pH 8.0) solution (BSA, 40 µL). The inhibition in comparison to control without compound was determined by pre-incubating this blend at room temperature with each compound at nine different concentrations for 10 min. Then, acetylthiocholine iodide (105 µL, 0.35 mM, final concentration) or butyrylthiocholine iodide (150 µL, 0.5 mM final concentration) was added and incubated for another 15 min at rt. […] Calculation of IC50 values was performed with GraphPad Prism 5. Each concentration was measured in triplicate. Data are expressed as mean ± SEM.

[2] = molecular target: T2, human recombinant AChE (hAChE) (Homo sapiens, UniProt P22303); experiment: biochemical
T2 construct: purchased Sigma-Aldrich
Method: Ellman’s assay was followed to evaluate the anticholinesterasic potency of BCPOs using human recombinant AChE (Sigma-Aldrich). 500 U of hAChE were dissolved in 1 mL of a gelatine solution (1% in water) and diluted with demineralized water to give a stock solution of 5 U/mL. […] All assays were performed in 0.1 M phosphate buffer pH 8.0. The assayed compounds or blank (water) (25 µL) were incubated with the enzyme (20 µL) for 5 min at 37 °C in 765 µL of phosphate buffer prior to start the reaction. Then, 20 µL of DTNB and 20 µL of ATC were added. […] IC50 values were determined with GraphPad Prism 5. Each concentration was measured in triplicate. Data are expressed as mean ± SEM.

[3] = in vitro; assay type: cell-based; conditions: human, HepG2 cells, 24 h, MTT, read-out: In vitro toxicity (% cell viability); for viability at 24 h, 1 µM: HepG2, 1 µM; for viability at 24 h, 3 µM: HepG2, 3 µM; for viability at 24 h, 10 µM: HepG2, 10 µM; for viability at 24 h, 30 µM: HepG2, 30 µM; for viability at 24 h, 100 µM: HepG2, 100 µM; for viability at 24 h, 300 µM: HepG2, 300 µM; for viability at 24 h, 1 mM: HepG2, 1 mM
Method: (§3) A prerequisite for any effective lead drug is to keep its cytotoxicity at the lowest possible level. In this regard, we submitted the four most promising compounds (3Ab, 3Bb, 3Cb and 3Ba) to an in vitro toxicologic evaluation (MTT assay) using human hepatocellular carcinoma cell line (HepG2) which represents a good probe to evaluate hepatotoxic effects. […].
(§4) HepG2 cells were purchased from American Type Culture Collection. The cells were cultured in Eagle’s Minimum Essential Medium (Ozyme, France) supplemented with 10% fetal bovine serum, 1X non-essential amino acids, 100 units/mL penicillin and […] streptomycin (Dutscher, Brumath, France). Cultures were kept under a CO2/air (5%/95%) humidified atmosphere at 37 °C. Prior to the experiment, cells were seeded in 96-well culture plates at a density of 0.1 × 10^6 cells per well. After 24 h of incubation, the culture medium was refreshed and 100 µL of the test compounds or DMSO (0.1%) were added. […] For the MTT assay, after 24 h of treatment, cells were incubated with 50 µL MTT (0.5 mg/mL, Sigma Aldrich, city, France) at 37 °C for 2 h. Plates were centrifuged, MTT was removed and 100 µL DMSO was distributed per well. The absorbance at 570 nm was measured using microplate reader (brand). Cell viability was expressed as percentage of cell viability compared to controls (DMSO, 0.1%).

[4] = tested on: HepG2 cells; experiment: in vitro; assay type: cell-based; conditions: HepG2, MTT, concentrations up to 1000 μM
Method: as §3, §4

[5] = molecular target: T3, horse serum BuChE (eqBuChE) (Equus caballus, UniProt P81908); experiment: Inhibition of eqBuChE (Ellman's assay); assay type: biochemical; conditions: 10 µM compound
T3 construct: BuChE from horse serum (lyophilized powder, Sigma-Aldrich); purchased Sigma-Aldrich; host or cells: horse serum
Method: as §1, §2

[6] = in vitro; conditions: for Papp at 100 µM: PAMPA, pH 7.4; for BBB Penetration Estimation CNS (+/−): PAMPA-BBB class
Method: Penetration across the BBB is an essential property for compounds targeting the CNS. […] The filter membrane of the donor plate was coated with PBL (Polar Brain Lipid, Avanti, AL, USA) in dodecane (4 µL of 20 mg/mL PBL in dodecane) and the acceptor well was filled with 300 µL of PBS pH 7.4 buffer ([…]). Tested compounds were dissolved first in DMSO and that diluted with PBS pH 7.4 to reach the final concentration 100 µM in the donor well. […] 300 µL of the donor solution was added to the donor wells ([…]) and the donor filter plate was carefully put on the acceptor plate so that coated membrane was “in touch” with both donor solution and acceptor buffer. Test compound diffused from the donor well through the lipid membrane (Area = 0.28 cm^2) to the acceptor well. The concentration of the drug in both donor and the acceptor wells was assessed after 3, 4, 5 and 6 h of incubation in quadruplicate using the UV plate reader Synergy HT (Biotek, Winooski, VT, USA) at the maximum absorption wavelength of each compound.

T3 sequence (P81908 whole entry): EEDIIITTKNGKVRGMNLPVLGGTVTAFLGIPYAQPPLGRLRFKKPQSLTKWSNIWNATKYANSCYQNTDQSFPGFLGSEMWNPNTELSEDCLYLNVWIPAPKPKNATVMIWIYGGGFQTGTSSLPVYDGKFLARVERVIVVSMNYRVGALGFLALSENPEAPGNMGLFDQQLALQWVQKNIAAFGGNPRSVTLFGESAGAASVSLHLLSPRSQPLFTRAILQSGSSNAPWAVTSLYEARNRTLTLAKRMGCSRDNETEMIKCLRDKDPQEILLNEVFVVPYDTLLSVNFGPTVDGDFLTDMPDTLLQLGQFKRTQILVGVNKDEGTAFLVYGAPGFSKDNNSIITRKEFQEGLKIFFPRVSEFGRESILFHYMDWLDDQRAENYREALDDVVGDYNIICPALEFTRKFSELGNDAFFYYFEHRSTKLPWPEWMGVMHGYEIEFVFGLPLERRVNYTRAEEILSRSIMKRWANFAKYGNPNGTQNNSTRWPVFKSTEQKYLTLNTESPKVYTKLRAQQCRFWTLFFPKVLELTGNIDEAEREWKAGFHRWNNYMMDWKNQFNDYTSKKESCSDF
T1 sequence (O42275 24-633): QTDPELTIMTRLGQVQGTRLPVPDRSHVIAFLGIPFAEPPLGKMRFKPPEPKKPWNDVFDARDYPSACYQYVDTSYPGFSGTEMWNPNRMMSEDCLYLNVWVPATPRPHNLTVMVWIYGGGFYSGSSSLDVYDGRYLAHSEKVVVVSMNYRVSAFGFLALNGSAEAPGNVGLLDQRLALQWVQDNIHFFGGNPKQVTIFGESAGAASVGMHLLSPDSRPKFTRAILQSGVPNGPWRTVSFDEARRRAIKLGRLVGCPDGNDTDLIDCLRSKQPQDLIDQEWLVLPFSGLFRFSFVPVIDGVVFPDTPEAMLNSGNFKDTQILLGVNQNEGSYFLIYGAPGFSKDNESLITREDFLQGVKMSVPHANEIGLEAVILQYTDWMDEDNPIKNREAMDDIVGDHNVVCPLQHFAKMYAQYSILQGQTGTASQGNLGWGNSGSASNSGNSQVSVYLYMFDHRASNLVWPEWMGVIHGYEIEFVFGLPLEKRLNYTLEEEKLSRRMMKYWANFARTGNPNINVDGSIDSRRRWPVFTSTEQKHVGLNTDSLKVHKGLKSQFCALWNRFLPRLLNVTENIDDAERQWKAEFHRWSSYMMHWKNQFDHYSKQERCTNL
T2 sequence (P22303 32-614): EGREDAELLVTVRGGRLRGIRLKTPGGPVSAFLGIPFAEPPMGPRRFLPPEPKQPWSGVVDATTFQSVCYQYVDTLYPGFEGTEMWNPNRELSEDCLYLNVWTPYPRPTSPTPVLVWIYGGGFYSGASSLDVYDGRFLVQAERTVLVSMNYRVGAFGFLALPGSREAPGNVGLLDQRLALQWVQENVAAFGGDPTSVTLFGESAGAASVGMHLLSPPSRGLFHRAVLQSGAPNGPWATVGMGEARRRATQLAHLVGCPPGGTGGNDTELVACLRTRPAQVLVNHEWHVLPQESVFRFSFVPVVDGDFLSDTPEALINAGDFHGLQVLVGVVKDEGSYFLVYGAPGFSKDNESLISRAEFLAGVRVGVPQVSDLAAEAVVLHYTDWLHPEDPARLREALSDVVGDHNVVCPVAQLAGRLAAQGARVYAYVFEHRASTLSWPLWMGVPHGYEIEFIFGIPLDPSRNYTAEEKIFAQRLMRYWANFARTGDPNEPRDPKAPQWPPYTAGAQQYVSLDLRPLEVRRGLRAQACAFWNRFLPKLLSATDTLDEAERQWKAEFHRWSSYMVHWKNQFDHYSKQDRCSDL

Compound | IC50 [1] | IC50 [2] | IC50 ([2]; mean ± SEM) | viability at 24 h, 1 µM [3] | viability at 24 h, 3 µM [3] | viability at 24 h, 10 µM [3] | viability at 24 h, 30 µM [3] | viability at 24 h, 100 µM [3] | viability at 24 h, 300 µM [3] | viability at 24 h, 1 mM [3] | hepatotoxicity on HepG2 cells (in words) [4] | inhibition at 10 µM [5] | Papp at 100 µM [6] | BBB Penetration Estimation CNS (+/−) [6]
COc1cccc(C2c3c(nc4n(c3=O)CCCC4)Oc3ccc4ccccc4c32)c1 (stereo not drawn) [3Bb, 15-(3′-Methoxyphenyl)-10,11,12,15-tetrahydro-9H-benzo[5,6]chromeno[2,3-d]pyrido[1,2-a]pyrimidin-14-one] | 30.5 ± 2.8 nM | 1280 ± 30 nM | 1280 ± 32 nM | 108 ± 2.4% | 111 ± 8.7% | 105 ± 4.2% | 104 ± 5% | 112 ± 2.3% | 118 ± 7.3% | 128 ± 5% | non-hepatotoxic | 43 ± 1.9% | 3.6 ± 0.57 ×10⁻⁶ cm/s | CNS (+/−) (‘CNS (+/−) (BBB permeability uncertain); Pe (10^−6 cm·s^−1) from 4.0 to 2.0)
Cc1ccc(C2c3c(nc4n(c3=O)CCCC4)Oc3ccc4ccccc4c32)cc1 (stereo not drawn) [3Cb, 15-(4′-Methylphenyl)-10,11,12,15-tetrahydro-9H-benzo[5,6]chromeno[2,3-d]pyrido[1,2-a]pyrimidin-14-one] | 55.9 ± 12.7 nM |  | 1590 ± 24 nM | 106 ± 7% | 103 ± 10.8% | 110 ± 9.1% | 113 ± 5.8% | 103 ± 5.7% | 113 ± 5.2% | 110 ± 8% | non-hepatotoxic | 19 ± 2% |  | 
COc1cccc(C2c3c(nc4n(c3=O)CCC4)Oc3ccc4ccccc4c32)c1 (stereo not drawn) [3Ba, 14-(3′Methoxyphenyl)-10,11-dihydro-14H-benzo[5,6]chromeno[2,3-d]pyrrolo[1,2-a]pyrimidin-13(9H)-one] | 60.7 ± 4.5 nM |  | 1530 ± 25 nM | 109 ± 2% | 108 ± 4.8% | 106 ± 3.5% | 99.2 ± 4.2% | 97 ± 5.4% | 108 ± 2.8% | 120 ± 6.8% | non-hepatotoxic | 51 ± 4% | 4.6 ± 0.77 ×10⁻⁶ cm/s | CNS (+) (‘CNS (+)’ (high BBB permeability predicted); Pe (10^−6 cm·s^−1) > 4.0)
O=c1c2c(nc3n1CCCC3)Oc1ccc3ccccc3c1C2c1ccccc1 (stereo not drawn) [3Ab, 15-Phenyl-10,11,12,15-tetrahydro-9H-benzo[5,6]chromeno[2,3-d]pyrido[1,2-a]pyrimidin-14-one] | 55.5 ± 7.1 nM |  | 3660 ± 59 nM | 99.3 ± 4% | 95.3 ± 2.3% | 98.5 ± 2.5% | 91.5 ± 4.5% | 101 ± 3.1% | 110 ± 5.5% | 110 ± 4.4% | non-hepatotoxic | 31.2 ± 1.8% | 7.2 ± 0.6 ×10⁻⁶ cm/s | CNS (+) (‘CNS (+)’ (high BBB permeability predicted); Pe (10^−6 cm·s^−1) > 4.0)
